System: HL-60
Test: Cytotoxicity against human HL60 cells after 72 hrs by MTT method
Assay type: functional, cell-based
Settings: HL-60, 72 h

Compound	IC50 [µM]
C=C(C)[C@@]1(O)[C@@H]2OC3(c4ccccc4)O[C@H]1[C@@H](C)[C@@]1(O3)[C@H]2[C@H](OC(C)=O)[C@@](C)(OC(=O)c2ccccc2)[C@@H](O)[C@@]2(OC(C)=O)[C@H]1C[C@H](C)[C@@H]2OC(C)=O [TRIGOHOWNIN A]	17
C=C(C)[C@@]12OC3(c4ccccc4)O[C@@H]1[C@@H]1[C@H](OC(C)=O)[C@@](C)(O)[C@@H](OC(C)=O)[C@@]4(OC(=O)c5ccccc5)[C@@H](C[C@H](C)[C@@H]4OC(C)=O)[C@@]1(O3)[C@H](C)[C@@H]2OC(C)=O [TRIGOHOWNIN D]	9.3
